Results taken from paper PMC10451629, “Evaluation of the Effects of Heteroaryl Ethylene Molecules in Combination with Antibiotics: A Preliminary Study on Control Strains” (Antibiotics, 2023).
Values joined by “and” are separate entries in the source; they are usually repeats but may differ in a detail not shown here. Equal values may be shown once. Read-outs that look alike come from different tables or passages of the source.

How the values were obtained:
[1] = test system: CaCo-2 (ATCC HTB-37) colon–rectal cancer cell line; test: MTT cytotoxicity assay on CaCo-2 cells; assay type: cell-based, human; conditions: Homo sapiens, CaCo-2 cell line, MTT
Procedure: To fully assess the biological activity of the new molecules, they were tested at different concentrations on the CaCo-2 (ATCC HTB-37) colon–rectal cancer cell line. These human cancer cells were exposed to compound solutions ranging in concentration from 100 µM to 0.01 µM. As a reference compound for these assays, we used 5-Fluorouracil (5-FU), a pyrimidine analog from the antimetabolite family.
The MTT assay was also performed for the selected antibiotics to evaluate the effect of their combined treatment with PB4.
To evaluate the effect of the heteroaryl ethylene compounds and the antibiotics, an MTT ([3-(4,5-dimethylthiazol-2-yl)-2,5-diphenyltetrazolium bromide]) assay was performed as previously described. […] Both concentrations were also tested in combination with PB4 0.2 µM. All antibiotics were provided by Thermo Scientific^TM Oxoid^TM, Basingstoke, UK. Twenty-four hours after plating, the cells were treated with 20 μL of each solution. Untreated cells were used as controls. […] The IC50 values were calculated by nonlinear regression analysis using GraphPad Prism 6.0 software.

[2] = test system: CaCo2 colon-rectal cancer cell line; set-up: method as in in-house dataset; Log(IC50) 48h: unit not given here; conditions: in-house dataset previously tested by the authors' groups, ref in-house dataset, cited from earlier work; for IC50: 48h
S. aureus ATCC29213 = conditions: QSAR dataset, in-house database, previously tested, ref Unpublished results; cited from earlier work
E. faecalis ATCC 29212 = test: Broth microdilution MIC; assay type: cell-based, Enterococcus faecalis; conditions: Enterococcus faecalis, ATCC29212, E. faecalis ATCC 29212; substance alone; read-out: MIC
E. coli ATCC 25922 = test: Broth microdilution MIC; assay type: cell-based; conditions: Escherichia coli, ATCC25922, substance alone, read-out: MIC
S. aureus ATCC 12598 = test: Broth microdilution MIC; assay type: cell-based, Staphylococcus aureus; conditions: Staphylococcus aureus, ATCC12598, S. aureus ATCC 12598; substance alone; read-out: MIC
S. enterica ATCC 14028 = test: Broth microdilution MIC; assay type: cell-based; conditions: Salmonella enterica, ATCC14028, substance alone
P. aeruginosa ATCC 27853 = test: Broth microdilution MIC; assay type: cell-based, Pseudomonas aeruginosa; conditions: Pseudomonas aeruginosa, ATCC27853, P. aeruginosa ATCC 27853; substance alone; read-out: MIC
S. aureus ATCC 29213 = test: Broth microdilution MIC; assay type: cell-based; conditions: Staphylococcus aureus, ATCC29213, S. aureus ATCC 29213; substance alone; read-out: MIC
A. baumannii ATCC 17978 = test: Broth microdilution MIC; assay type: cell-based; conditions: Acinetobacter baumannii, ATCC17978, substance alone
[3] = test system: K. pneumoniae ATCC 700603; test: Broth microdilution MIC; assay type: cell-based, Klebsiella pneumoniae; conditions: Klebsiella pneumoniae, ATCC700603, K. pneumoniae ATCC 700603; substance alone; read-out: MIC
[4] = test system: S. aureus ATCC BAA-1556 USA300; test: Broth microdilution MIC; assay type: cell-based, Staphylococcus aureus; conditions: Staphylococcus aureus, S. aureus ATCC BAA-1556 USA300; substance alone
[5] = Caco-2, 24 h, 24 h of treatment, read-out: IC50 at 24 h
[6] = Caco-2, 48 h, 48 h of treatment, read-out: IC50 at 48 h

Structure (SMILES) | IC50 [2] [µM] | Log(IC50) 48h [2] | further results
O=c1[nH]cc(F)c(=O)[nH]1 [5-FU, 5-Fluorouracil] |  |  | IC50 [1, 5]: ~27 µM; IC50 [1, 6]: 12.9 µM
C[n+]1c(/C=C/c2ccc(-c3ccc(N4CCCCC4)s3)s2)ccc2ccccc21 [BC1] | 20 | 1.30 | 
CCCCN(CCCC)c1ccc(-c2ccc(/C=C/c3ccc(C(=O)O)c[n+]3C)s2)s1 [BCG3] | 8 | 0.90 | 
CC[n+]1ccc2c(c1)CCC/C2=C\c1ccc(N(C)C)cc1 [BCM3] | 1.35 | 0.13 | MIC (S. aureus ATCC29213): 64 µg/mL
CN(C)c1ccc(/C=C/c2cccc[n+]2C)cc1 [BCM4] |  |  | MIC (E. faecalis ATCC 29212): ≥ 128 µg/mL and ≥ 350 µM; MIC (E. coli ATCC 25922): ≥ 128 µg/mL and ≥ 350 µM; MIC (S. aureus ATCC 12598): 64 µg/mL and 175 µM; MIC (S. enterica ATCC 14028): > 128 µg/mL and ≥ 350 µM; MIC (P. aeruginosa ATCC 27853): > 128 µg/mL and ≥ 350 µM; MIC (S. aureus ATCC 29213): 128 µg/mL and 350 µM; MIC (A. baumannii ATCC 17978): ≥ 128 µg/mL and ≥ 350 µM; MIC [3]: > 128 µg/mL and ≥ 350 µM; MIC [4]: 64 µg/mL and 175 µM; IC50 [1, 5]: 0.72 µM; IC50 [1, 6]: 0.1 µM
C[n+]1c(/C=C/c2cc(Cl)ccc2O)cccc1/C=C/c1cc(Cl)ccc1O [BCM12] |  |  | MIC (S. aureus ATCC29213): > 128 µg/mL
CC[n+]1ccc2c(c1)CCC/C2=C\c1ccccc1O [BCNAc1] |  |  | MIC (S. aureus ATCC29213): > 128 µg/mL
C[n+]1ccccc1/C=C/c1ccc2ccc3c4c2c1C=CC4C=CC3 (stereo not drawn) [GC VI 3] | 0.9 | -0.0458 | 
C[n+]1c(/C=C/c2ccc(N(c3ccccc3)c3ccccc3)cc2)ccc2ccccc21 [GC VI 14] | 4 | 0.602 | 
CN(C)c1ccc(/C=C/c2cc[n+](C)cc2)cc1 [GC VI 17] | 8 | 0.903 | 
CN(C)c1ccc(/C=C/C=C/c2cc[n+](C)cc2)cc1 [GC VI 45] | 16 | 1.20 | 
C[n+]1c(/C=C/c2ccnc(-c3cc(/C=C/c4ccc5ccccc5[n+]4C)ccn3)c2)ccc2ccccc21 [GC VI 71] | 51.2 | 1.71 | 
CCOC(=O)C(C#N)c1ccc(/C=C/c2cc[n+](C)cc2)n1C (stereo not drawn) [GC VII 16] | 70 | 1.85 | 
C[n+]1ccccc1/C=C/c1ccc2ccccc2c1 [GC VII 46] | 5.5 | 0.740 | 
